Laboratory results published in article PMC10079954, “Rational design of phase separating peptides based on phase separating protein sequence of p53” (Scientific Reports, 2023).

Tests used:
[1] = Cross-β structure detection with amyloid-sensitive probe Picogreen; assay type: physicochemical
Description: Differential interference contrast (DIC) microscopy confirmed that these peptides (0.9–1.8 mM) underwent phase separation in 25 mM HEPES and 0.5 mM EDTA at pH 7.0 (Fig. 2B). To prevent the melting of clusters on the coverslip surface, 2-methacryloyloxyethyl phosphorylcholine (MPC) polymer coating was used[36],[37] (Supplementary Fig. S1). Samples were prepared by sonicating a 2 mM peptide solution or diluting the peptide solution from a 10 mM peptide stock after storage under freezing conditions. Four of the designed peptides, except DPp53N-GSGS-DPp53C2, formed μm-sized spherical clusters. Fluorescence microscopy confirmed the high concentration of peptides labeled with the fluorescent dye Alexa488 in the clusters (Fig. 2B). […] Cross-β structure was also supported by the observation of intrinsic fluorescence upon 400–440 nm excitation[40] (Supplementary Fig. S2). Clusters of aromatic W residues in DPp53N-GSGS-DPp53C2 may lead to the formation of solid aggregates, which is consistent with the results of different systems[21],[34].
The DIC and fluorescence modes of an inverted microscope (IX-73; Olympus, Tokyo, Japan) equipped with microscopic objectives (60 × and 10 ×) and a camera (DP74) were used, as described previously. We used the solution containing 0.9–1.8 mM designed peptide, 0.1 μM Alexa488-labeled peptide, 25 mM HEPES, and 0.5 mM EDTA at pH 7.0. To detect the cross-β structure, picogreen was added at 25 µM for DPp53N-GSGS-DPp53C2 or 2.5 µM for others instead of the Alexa488-labeled peptide. […] DIC and fluorescence images were obtained at 20 or 22 °C. For intrinsic fluorescence measurements, the excitation and detection wavelengths were 440–440 nm and larger than 460 nm, respectively.
Fig. S8 Time course of cross-β structure formation of designed peptides in droplets monitored by DIC and fluorescence images. The fluorescence was detected corresponding to the amyloid marker Picogreen at 2.5 µM in a solution containing 0.9 mM designed peptides, 25 mM HEPES, and 0.5 mM EDTA at pH 7.0 and 22 °C.

[2] = system: p53 monomer (L344P) mutant; experiment: Recruitment (enrichment index) of p53 monomer into designed peptide droplets; set-up: species or system human; settings: (GGGS)3-linker versus GSGS-linker droplets; no salt, pH 7.0
Text: (§1) We prepared p53 tetramer, dimer, and monomer mutants, as described previously[8],[37],[50]. For the p53 tetramer, a thermostable and cysteine-modified human p53 mutant (C124A, C135V, C141V, W146Y, C182S, V203A, R209P, C229Y, H233Y, Y234F, N235K, Y236F, T253V, N268D, C275A, C277A, and K292C) was used[50]. The dimer and monomer mutants of p53 corresponded to L344A and L344P of the tetramer sequence, respectively[8],[37]. These p53 mutants were expressed with a glutathione S-transferase (GST) tag in E. coli and purified after cleavage of the GST tag, as described previously[50],[51]. The oligomeric state of p53 mutants was confirmed using a gel filtration column (Superdex 200; GE Healthcare). p53 mutants were labeled with Atto488 (ATTO-TEC) or Alexa488 (Thermo Fisher) using maleimide chemistry and then purified using a heparin column (GE Healthcare). We prepared Alexa488-labeled FUS-MBP as described previously[37],[39].
(§2) Recruitment evaluations were performed following the method described in our previous studies[37],[41]. Solutions containing 0.9–1.8 mM designed peptides, 0.1 µM Alexa488-labeled p53 mutants or Alexa488, 25 mM HEPES, 0.5 mM EDTA, and 1 mM DTT at pH 7.0 were used. The solutions were then incubated at 22 °C for five minutes. The aforementioned microscope was used with HILO illumination. To prevent photo-bleaching of the fluorescent samples, we used a laser power of 0.15 mW. The images were acquired at 22 °C. Using the ImageJ software, we calculated the EI values of the individual droplets as follows:2 EI=Idroplet/Isolution, where Idroplet and Isolution represent the average fluorescence intensities of the individual droplets and solutions near the droplets with background substitution, respectively.

p53 dimer (L344A) mutant = experiment: Recruitment (enrichment index) of p53 dimer into designed peptide droplets; set-up: species or system human; settings: (GGGS)3-linker versus GSGS-linker droplets; no salt, pH 7.0
Text: as §1
Recruitment evaluations were performed following the method described in our previous studies[37],[41]. […] Using the ImageJ software, we calculated the EI values of the individual droplets as follows:2 EI=Idroplet/Isolution, where Idroplet and Isolution represent the average fluorescence intensities of the individual droplets and solutions near the droplets with background substitution, respectively.

p53 tetramer = experiment: Recruitment (enrichment index) of p53 tetramer into designed peptide droplets; set-up: species or system human; settings: (GGGS)3-linker versus GSGS-linker droplets; no salt, pH 7.0
Text: as §1, §2

Sequence: RRRVVQRRRRGGGSGGGSGGGSDDDASQEDDD [DPp53N-(GGGS)3-DPp53C1]
- Picogreen fluorescence intensity in droplets versus solution ([1]; Picogreen 2.5 µM, 0.9 mM designed peptide, 25 mM HEPES, 0.5 mM EDTA, pH 7.0, 22 °C): higher than that in the solution
- Cross-β structure and state of droplets after long-term incubation ([1]; long-term incubation): gel-like assemblies of the droplets
- Decrease of average EI of p53 monomer mutant compared to the GSGS-linker peptide [2]: 1.2 fold
- Increase of average EI of p53 dimer mutant compared to the GSGS-linker peptide (p53 dimer (L344A) mutant): 1.5 fold
- Increase of average EI of p53 tetramer compared to the GSGS-linker peptide (p53 tetramer): 1.8 fold
